Assay [1] concerns the target Casein kinase II subunit alpha (Zea mays, UniProt P28523). Put plainly: Inhibition of corn CK2.
The test system of assay [2] is HCT-116. In words: Inhibition of human HCT116 cells by MTT assay. Format: functional, cell-based. For orientation: Tetrazolium assays rely on reduction of a dye to a coloured formazan, in cell work by metabolically active cells.
Assay [3] has as its system PC-3. In words: Inhibition of human PC3 cells by MTT assay. Format: functional, cell-based.

pIC50, pKi: −log10 of the molar value.

For orientation: pKi means the negative decadic logarithm of the Ki, by convention in mol/L. Low values mean a large Ki, high ones a small Ki. The pIC50 is the IC50 on a negative log10 scale, so that one unit is a factor of ten. Lower therefore signals a high IC50.

Sequence of Casein kinase II subunit alpha (P28523 whole entry): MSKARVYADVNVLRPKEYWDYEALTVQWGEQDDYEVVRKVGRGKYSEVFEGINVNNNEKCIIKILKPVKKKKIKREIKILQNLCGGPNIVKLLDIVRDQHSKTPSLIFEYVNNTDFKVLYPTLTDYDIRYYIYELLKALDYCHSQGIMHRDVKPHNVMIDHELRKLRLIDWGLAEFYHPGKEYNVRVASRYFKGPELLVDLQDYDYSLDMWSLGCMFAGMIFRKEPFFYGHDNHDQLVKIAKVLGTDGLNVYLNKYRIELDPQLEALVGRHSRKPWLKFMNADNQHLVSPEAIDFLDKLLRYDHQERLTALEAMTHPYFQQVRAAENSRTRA

`O=C1CCCCc2cnn3c(Nc4cccc(C(=O)N5CC(O)C5)c4)nc(nc23)Nc2cccc(c2)N1` gave a pKi in assay [1] of 8.44. Further, the pIC50 in assay [2] (Homo sapiens, HCT-116) is 6.48; in assay [3] (Homo sapiens, PC-3) it was 6.22.
The like results for `CN(C)C1CCN(C(=O)c2cccc(Nc3nc4nc5c(cnn35)CCCCC(=O)Nc3cccc(c3)N4)c2)C1` (stereo unspecified) were, in that order, 8.85, 6.72 and 6.64.
In the case of `CCN(CC)C1CCN(C(=O)c2cccc(Nc3nc4nc5c(cnn35)CCCCC(=O)Nc3cccc(c3)N4)c2)C1` (stereo unspecified), the pKi in assay [1] was 8.66. For the same compound, the pIC50 was 6.89 in assay [2] (Homo sapiens, HCT-116) and 6.85 in assay [3] (Homo sapiens, PC-3).
The like results for `CCN(CC)C1CN(C(=O)c2cccc(Nc3nc4nc5c(cnn35)CCCCC(=O)Nc3cccc(c3)N4)c2)C1` were, in that order, 8.47, 6.52 and 6.21.
Consider `CN1CCN(C(=O)c2cccc(Nc3nc4nc5c(cnn35)CCCCC(=O)Nc3cccc(c3)N4)c2)CC1`, for which, in assay [1], the pKi was 8.89. Further, the negative-log IC50 (pIC50) is 6.60 in assay [2] (Homo sapiens, HCT-116) and 6.30 in assay [3] (Homo sapiens, PC-3).
`CN1CCC(N(C)C(=O)c2cccc(Nc3nc4nc5c(cnn35)CCCCC(=O)Nc3cccc(c3)N4)c2)CC1`: in assay [1], the pKi was 8.85. Also, the pIC50 in assay [2] (Homo sapiens, HCT-116) was 6.74.
As for `CN1CC(NC(=O)c2cccc(Nc3nc4nc5c(cnn35)CCCCC(=O)Nc3cccc(c3)N4)c2)C1`, the pKi in assay [1] was 8.13. Also, the pIC50 in assay [2] (Homo sapiens, HCT-116) is 6.57; in assay [3] (Homo sapiens, PC-3), 6.48.
For `CC(=O)Nc1cccc(Nc2nc(NC3CC3)n3ncc(C#N)c3n2)c1`, the pIC50 in assay [3] (Homo sapiens, PC-3) was 5.29.
For `O=C1CCCCc2cnn3c(Nc4cccc(C(=O)N5CCNCC5)c4)nc(nc23)Nc2cccc(c2)N1`, in assay [1], the pKi is 9.10. The pIC50 in assay [2] (Homo sapiens, HCT-116) was 6.36.
For the compound `CN1CCC(N(C)C(=O)c2cccc(Nc3nc4nc5c(cnn35)CCCCC(=O)Nc3cccc(c3)N4)c2)C1` (stereo unspecified), the pKi in assay [1] is 8.70. Further, the pIC50 was 7.08 in assay [2] (Homo sapiens, HCT-116) and 6.92 in assay [3] (Homo sapiens, PC-3).
`CCN(CC)CCN(C)C(=O)c1cccc(Nc2nc3nc4c(cnn24)CCCCC(=O)Nc2cccc(c2)N3)c1` showed a pKi in assay [1] of 8.62. The same compound gave a pIC50 in assay [2] (Homo sapiens, HCT-116) of 6.82.
In turn, `CN(C)CCN(C)C(=O)c1cccc(Nc2nc3nc4c(cnn24)CCCCC(=O)Nc2cccc(c2)N3)c1` had a pKi in assay [1] of 8.40. Also, the pIC50 in assay [2] (Homo sapiens, HCT-116) is 6.89; in assay [3] (Homo sapiens, PC-3) it was 6.68.
In turn, `CN(C)CCNC(=O)c1cccc(Nc2nc3nc4c(cnn24)CCCCC(=O)Nc2cccc(c2)N3)c1` showed a pKi in assay [1] of 8.28. For the same compound, the pIC50 in assay [2] (Homo sapiens, HCT-116) is 6.62; in assay [3] (Homo sapiens, PC-3), 6.42.
In the case of `O=C1CCCCc2cnn3c(NC4CC4)nc(nc23)Nc2cccc(c2)N1`, the pIC50 in assay [2] (hct-116) is 6.54; in assay [3] (pc-3) it was 6.06.
